Consider one compound from PMC6385671, “An integrated-molecular-beacon based multiple exponential strand displacement amplification strategy for ultrasensitive detection of DNA methyltransferase activity” (Chemical Science, 2018).

What is called IC50 is the point on the concentration scale where inhibition reaches its midpoint.

In this assay the target is Dam MTase (Escherichia coli, UniProt P0AEE8). The assay can be described thus: coupled fluorescence assay (molecular beacon methylation, DpnI cleavage, strand displacement amplification) with commercial Dam MTase. It counts as biochemical.
Chain of Dam MTase (P0AEE8 whole entry): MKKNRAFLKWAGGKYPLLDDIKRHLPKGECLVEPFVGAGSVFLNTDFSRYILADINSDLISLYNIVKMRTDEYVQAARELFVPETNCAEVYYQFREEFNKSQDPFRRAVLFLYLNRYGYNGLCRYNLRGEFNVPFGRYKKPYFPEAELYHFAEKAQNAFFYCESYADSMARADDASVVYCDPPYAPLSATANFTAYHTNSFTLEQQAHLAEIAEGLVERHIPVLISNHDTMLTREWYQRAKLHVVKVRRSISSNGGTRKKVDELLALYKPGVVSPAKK

In turn, `O=c1[nH]cc(F)c(=O)[nH]1` [5-fluorouracil] registered an IC50 of 710 nM.
